# ± gives the standard deviation.
# Legend:
# [1] = system: Plasmodium falciparum 3D7; assay: EC50 growth inhibition (60 h, SYBR Green); conditions: stage: ring-stage start
# [2] = system: Toxoplasma gondii RH tachyzoites; assay: % growth inhibition vs DMSO (48 h luciferase); higher = more inhibition; conditions: 10 µM
# [3] = system: Plasmodium falciparum 3D7; assay: R50 (50% reduction of ring formation, egress/invasion); higher = less potent
# Protocol: (§1)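 P. falciparum asexual blood stages. EC50: sorbitol-synchronized 3D7 rings were treated with 2-fold dilutions from 10 µM for 60 h, with parasitemia read by SYBR Green I fluorescence; EC50 listed as 10 means not determined and is left out. Stage transition screen: ~40-42 hpi schizonts were treated at 1, 3 and 10 µM; new rings were counted by Hoechst flow cytometry and % inhibition is relative to DMSO controls (mean of 3 experiments). R50: concentration giving 50% reduction of new ring formation versus DMSO in 3D7, K1 and KH004-003, from flow cytometry after 12-20 h treatment of schizonts.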
# [4] = system: Plasmodium falciparum K1 (chloroquine resistant); assay: as above
# Protocol: as §1
# [5] = system: Plasmodium falciparum KH004-003 (artemisinin resistant); assay: as above
# Protocol: as §1
# [6] = system: Plasmodium falciparum 3D7; assay: % inhibition of schizont-to-ring transition vs DMSO; higher = more inhibition
# Method in brief: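 Schizont-to-ring transition inhibition is the formation of new rings relative to vehicle controls. Tightly synchronised P. falciparum schizonts at about 40–42 hours post-invasion (1% parasitemia, 2.5% hematocrit, AlbuMAX-supplemented RPMI) were treated with compound at 1, 3 or 10 µM, alongside vehicle and positive controls. After glutaraldehyde fixation, Triton permeabilisation and Hoechst 33342 staining, at least 100,000 events were counted by flow cytometry, and values are the mean of three experiments.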
# [7] = system: Toxoplasma gondii RH tachyzoites; assay: median egress time after A23187 ionophore; higher = stronger egress inhibition; conditions: 10 µM; pretreatment time: 24 h
# Protocol: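 T. gondii RH tachyzoites expressing firefly luciferase were grown in HFF monolayers for 48 h with compound. % growth inhibition at 10 µM and EC50 (2-fold dilutions from 10 µM) were read by luminescence relative to 1% DMSO; EC50 listed as 10 (not determined, <80% inhibition) is left out. Plaque assays: 50 tachyzoites per well with 10 µM compound for 8-10 days, giving plaque count and area by crystal violet/ImageJ. Egress: median time to egress after 1 µM A23187 ionophore following 24 h of 10 µM compound (DMSO ~1.8 min; >10 = no egress within 10 min).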
# [8] = system: Toxoplasma gondii RH tachyzoites; assay: plaque count per well; higher = less inhibition; extreme values may be limits of the assay; conditions: 10 µM; 8-10 days
# Method in brief: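 Confluent HFF monolayers in six-well plates were preseeded with compound at 10 µM, and fifty T. gondii RH tachyzoites were added to each well. After 8 to 10 days without disturbance, the plates were methanol-fixed, stained with crystal violet, imaged, and plaques per well were counted in ImageJ. The plaque count per well is taken as a measure of delayed-death inhibition of parasite growth.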
# [9] = target: Toxoplasma gondii RH tachyzoites; assay: EC50 growth inhibition (48 h luciferase)
# 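Throughout, for % growth inhibition vs DMSO (48 h luciferase): tested in triplicate wells of 96-well plates on confluent HFF monolayers, with 1% DMSO wells as negative control in four replicates.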
SMILES,EC50 growth inhibition [1],% growth inhibition [2],R50 [3],R50 [4],R50 [5],% inhibition of schizont-to-ring transition ([6]; 1 µM),% inhibition of schizont-to-ring transition ([6]; 3 µM),% inhibition of schizont-to-ring transition ([6]; 10 µM),median egress time [7],plaque count per well [8],EC50 growth inhibition [9]
Cc1cc(Nc2ccc(C)c(Cl)c2)n2nc(C(F)(F)F)nc2n1,0.0125 µM,23.8 ± 9.5%,0.274 µM,0.212 µM,0.1 µM,51.6%,56.6%,65.1%,2.46 min,,
CCOc1cc(Cl)c(C(C)NC(=O)c2ccccc2)cc1OCC (stereo not given),1.45 µM,< 0%,,,,46.5%,78.6%,76.7%,2.67 min,22,
CCCC(c1nnnn1C1CCCCC1)N1CCN(C(=O)c2ccco2)CC1 (stereo not given),1.47 µM,9.52 ± 8.7%,,,,9.2%,14.6%,32.1%,2.4 min,24,
Cc1ccc(C)c(-c2csc(Nc3ccc(C)c(C)c3)n2)c1,,< 0%,,,,13.5%,16%,20.4%,3.2 min,22,
Cc1cc(Nc2ccc(OCc3ccccc3)cc2)nc2cc(O)ccc12,0.195 µM,100.3 ± 0.21%,0.97 µM,0.291 µM,0.702 µM,64.2%,71.9%,69.8%,,,2.85 µM
Cn1c(C(=O)c2cccc3ccccc23)nc2ccccc21,0.147 µM,9.52 ± 8.7%,,,,53%,65.5%,70.2%,2.4 min,24,
Oc1ccc(Br)cc1CN1CCN(Cc2cccc(F)c2)CC1,0.787 µM,6.13 ± 7.3%,,,,19%,40.9%,60.6%,2.27 min,21,
COc1cccc(-c2nn(C)c3sc(C(=O)NCCN4CCN(c5ccccc5F)CC4)cc23)c1,4.2 µM,1.85 ± 3.2%,,,,12.9%,36.3%,60.8%,2.93 min,31,
COc1ccc(C(=O)C(CCC(CNC(C)(C)C)C(=O)c2ccc(OC)cc2)CNC(C)(C)C)cc1 (stereo not given),1.45 µM,89.2 ± 2.7%,,,,< 0%,16.3%,66.1%,,0,1.51 µM
O=C(NC1CCN(Cc2ccccc2)CC1)c1cc(-c2cccnc2)nc2ccc(Cl)cc12,2.56 µM,19.7 ± 17%,,,,13.5%,17.4%,37.7%,2.67 min,34,
COc1ccccc1C(=O)ON=C(N)Cc1cccc2ccccc12,0.244 µM,73.6 ± 2.5%,3.9 µM,3.93 µM,1.25 µM,12%,43.7%,78.8%,,,
CC(NCc1ccccc1)c1cc(Cl)ccc1O (stereo not given),0.801 µM,14.9 ± 6%,,,,29.2%,44.4%,66.6%,2.27 min,29,
Cc1cc(NC(=O)c2ccc(-c3ccccc3)cc2)no1,1.81 µM,< 0%,,,,45.3%,53.4%,61.7%,2.27 min,26,
OC(Cn1nnc2ccccc21)Cn1c2ccc(Br)cc2c2cc(Br)ccc21 (stereo not given),,22.8 ± 3.4%,2.87 µM,1.23 µM,0.102 µM,< 0%,30.6%,45.7%,,,
CC(=O)Nc1nnc(SCc2c(C)cc(C(C)(C)C)cc2C)s1,,< 0%,,,,42.7%,46.5%,55.4%,2.4 min,21,
COc1cc(-c2nc(-c3ccccc3)c(-c3ccccc3)[nH]2)cc(OC)c1O,8.62 µM,6.6 ± 11%,,,,13.7%,15.2%,37.4%,2.93 min,22,
CCOc1ccccc1CNC(=O)C1c2ccccc2C(=O)N(CC(C)C)C1c1cccs1 (stereo not given),0.649 µM,70.7 ± 11%,2.06 µM,2.11 µM,2.32 µM,38.3%,65.3%,74.8%,,,
CCOC(=O)c1cn(CC)c2cc(N3CCCCC3)c(F)cc2c1=O,0.67 µM,67.3 ± 6.7%,0.738 µM,1.48 µM,0.155 µM,45.5%,61.4%,65.5%,,,
OC(CNC1CCCCC1)Cn1c2ccc(I)cc2c2cc(I)ccc21 (stereo not given),0.591 µM,< 0%,,,,39.7%,69%,73.8%,1.33 min,3,
Oc1ccccc1CN1CCC2(CCCN(Cc3ccccc3F)C2)C1 (stereo not given),1.14 µM,< 0%,,,,31.4%,37.7%,60.6%,2.13 min,26,
Oc1ccc(-c2nc(-c3ccc4oc5ccc(-c6[nH]c(-c7ccc(O)cc7)nc6-c6ccccc6)cc5c4c3)c(-c3ccccc3)[nH]2)cc1,1.89 µM,< 0%,,,,8.13%,15.7%,48.8%,1.47 min,11,
COc1cccc(O)c1CN1CCC2(CCCN(Cc3ccc(F)cc3)C2)C1 (stereo not given),0.409 µM,79.6 ± 3.5%,1.91 µM,0.805 µM,1.23 µM,42.2%,68.4%,72.4%,,,
CN1CCN(c2ccc(Nc3c4ccccc4nc4ccccc34)cc2)CC1,0.0599 µM,100 ± 0.36%,1.39 µM,1.94 µM,0.883 µM,68.6%,75.5%,77.1%,,,2.32 µM
CCOc1cccc(C(=O)Nc2ccc(-c3nc4ccccc4[nH]3)cc2)c1,,< 0%,,,,7.94%,22.4%,54.6%,1.87 min,28,

SMILES,EC50 growth inhibition [1],% growth inhibition [2],R50 [3],R50 [4],R50 [5],% inhibition of schizont-to-ring transition ([6]; 1 µM),% inhibition of schizont-to-ring transition ([6]; 3 µM),% inhibition of schizont-to-ring transition ([6]; 10 µM),median egress time [7],plaque count per well [8],EC50 growth inhibition [9]
CCCCCCc1cc2cc(-c3csc(C=Cc4ccccc4)n3)c(=O)oc2cc1O,8.4 µM,8.97 ± 4.1%,,,,9.04%,16%,39.7%,1.94 min,16,
CCOc1ccccc1CN1CCc2nc3cc(C(C)(C)C)nn3c(O)c2C1,2.29 µM,< 0%,,,,34.2%,42.8%,49.8%,1.47 min,28,
COc1ccc(NC(=O)C2c3ccccc3C(=O)N(CC(C)C)C2c2cccs2)cc1Cl (stereo not given),1.04 µM,< 0%,0.156 µM,0.183 µM,0.204 µM,75.7%,74.9%,78.9%,,28,
Cc1c(C)n(CC(O)CNC2CCCCC2C)c2ccccc12 (stereo not given),2.18 µM,< 0%,,,,14.4%,32.3%,64.2%,3.07 min,23,
Cc1sc2ncnc(Sc3nc4ccccc4[nH]3)c2c1C,0.86 µM,95.05 ± 0.6%,2.43 µM,1.69 µM,0.464 µM,47.8%,59.6%,77.8%,,,2.95 µM
Cc1cc(C)c2c(c1)OCN(Cc1ccccc1Cl)C2,3.62 µM,4.95 ± 8.6%,,,,< 0%,17.9%,59.9%,2 min,27,
O=C(Nc1ccccc1O)c1ccc(Oc2cccc(C(=O)Nc3ccccc3O)c2)cc1,1.84 µM,99.35 ± 0.37%,,,,0.57%,30%,46.7%,,,1.67 µM
CCOc1ccc(/C=C/c2nc(=O)c3ccccc3o2)cc1,0.657 µM,97.94 ± 0.17%,,,,13.3%,41.5%,69.3%,,,0.0217 µM
Cc1ccc(NC(=O)Nc2cccc(Cl)c2)cc1F,6.57 µM,98.51 ± 0.27%,,,,< 0%,2.62%,34.3%,,,1.62 µM
COc1ccc2sc(N(Cc3cccnc3)C(=O)c3ccc(C#N)cc3)nc2c1,6.59 µM,< 0%,,,,35.3%,39.1%,51.7%,> 10 min,21,
COc1ccc(Nc2cc(C)nc(NCc3ccccc3)n2)cc1,0.115 µM,98.67 ± 0.18%,,,,30.2%,34.6%,60%,,,0.653 µM
c1ccc2c(NCCc3c[nH]c4ccccc34)c3ccccc3nc2c1,0.201 µM,100.1 ± 0.54%,,,,57.4%,60.8%,71.5%,,,0.17 µM
O=C(NC1CCCCC1)C(c1cccs1)N(CCc1ccccc1)C(=O)c1ccco1 (stereo not given),1.72 µM,< 0%,,,,38.6%,42%,46.4%,2.06 min,39,
CSc1ccccc1C(=O)Nc1nc(-c2ccccn2)cs1,1.71 µM,99.44 ± 0.19%,,,,23%,26.9%,40.1%,,,0.849 µM
Cc1ccc(Nc2nc(N)c3ccccc3n2)cc1Cl,0.427 µM,98.03 ± 0.51%,,,,23.3%,60.8%,67.5%,,,1.98 µM
COc1ccc(C2NCCc3c2[nH]c2ccccc32)cc1CN1CCN(c2ccc(F)cc2)CC1 (stereo not given),0.468 µM,99.96 ± 0.41%,,,,26.9%,62.9%,77.3%,,,4.88 µM
COc1ccc(Nc2nc(NCc3ccccc3)c3ccccc3n2)cc1,0.104 µM,100.5 ± 0.45%,,,,26.4%,34.8%,48%,,,0.763 µM
COc1cc2c(cc1OC)C1=NNC(=O)C1=NC(C)(C)C2,1.79 µM,80.4 ± 1.2%,,,,14.2%,25.3%,63.4%,,,3.26 µM
CCOC(=O)c1c(C)n(-c2ccccc2)c2ccc(OC(=O)c3cc(OC)c(OC)c(OC)c3)cc12,1.6 µM,96.58 ± 0.65%,,,,11.1%,16.1%,27.7%,,,6.36 µM
CCOC(=O)C1=C(c2ccccc2)N=c2sc(=Cc3cc(C)n(-c4ccc(F)cc4)c3C)c(=O)n2C1c1cccc(OC)c1OC (stereo not given),0.493 µM,92.3 ± 2%,,,,0.392%,3.17%,14.4%,,,1.5 µM
OC(CNCC1CCCO1)Cn1c2ccc(Cl)cc2c2cc(Cl)ccc21 (stereo not given),0.394 µM,99.23 ± 0.57%,,,,5.57%,44.1%,65.7%,,,4.46 µM
COc1ccccc1N1C(=N)SC(=Cc2ccc(OCc3ccccc3F)cc2)C1=O,4.92 µM,93.42 ± 0.8%,,,,14.8%,30.1%,52.5%,,,0.978 µM
CCOc1ccc(Nc2c3ccccc3nc3ccccc23)cc1,0.529 µM,100.1 ± 0.26%,,,,45.1%,58.5%,68.8%,,,0.884 µM
